Results taken from ChEMBL document CHEMBL1144726, “"Virtual fragment linking": an approach to identify potent binders from low affinity fragment hits” (J Med Chem, 2008).

What was measured:
Estrogen receptor beta = Estrogen receptor beta (Homo sapiens, UniProt Q92731)
[1] = target: Nitric oxide synthase, inducible (Homo sapiens, UniProt P35228)
Sequence of Nitric oxide synthase, inducible (P35228 whole entry): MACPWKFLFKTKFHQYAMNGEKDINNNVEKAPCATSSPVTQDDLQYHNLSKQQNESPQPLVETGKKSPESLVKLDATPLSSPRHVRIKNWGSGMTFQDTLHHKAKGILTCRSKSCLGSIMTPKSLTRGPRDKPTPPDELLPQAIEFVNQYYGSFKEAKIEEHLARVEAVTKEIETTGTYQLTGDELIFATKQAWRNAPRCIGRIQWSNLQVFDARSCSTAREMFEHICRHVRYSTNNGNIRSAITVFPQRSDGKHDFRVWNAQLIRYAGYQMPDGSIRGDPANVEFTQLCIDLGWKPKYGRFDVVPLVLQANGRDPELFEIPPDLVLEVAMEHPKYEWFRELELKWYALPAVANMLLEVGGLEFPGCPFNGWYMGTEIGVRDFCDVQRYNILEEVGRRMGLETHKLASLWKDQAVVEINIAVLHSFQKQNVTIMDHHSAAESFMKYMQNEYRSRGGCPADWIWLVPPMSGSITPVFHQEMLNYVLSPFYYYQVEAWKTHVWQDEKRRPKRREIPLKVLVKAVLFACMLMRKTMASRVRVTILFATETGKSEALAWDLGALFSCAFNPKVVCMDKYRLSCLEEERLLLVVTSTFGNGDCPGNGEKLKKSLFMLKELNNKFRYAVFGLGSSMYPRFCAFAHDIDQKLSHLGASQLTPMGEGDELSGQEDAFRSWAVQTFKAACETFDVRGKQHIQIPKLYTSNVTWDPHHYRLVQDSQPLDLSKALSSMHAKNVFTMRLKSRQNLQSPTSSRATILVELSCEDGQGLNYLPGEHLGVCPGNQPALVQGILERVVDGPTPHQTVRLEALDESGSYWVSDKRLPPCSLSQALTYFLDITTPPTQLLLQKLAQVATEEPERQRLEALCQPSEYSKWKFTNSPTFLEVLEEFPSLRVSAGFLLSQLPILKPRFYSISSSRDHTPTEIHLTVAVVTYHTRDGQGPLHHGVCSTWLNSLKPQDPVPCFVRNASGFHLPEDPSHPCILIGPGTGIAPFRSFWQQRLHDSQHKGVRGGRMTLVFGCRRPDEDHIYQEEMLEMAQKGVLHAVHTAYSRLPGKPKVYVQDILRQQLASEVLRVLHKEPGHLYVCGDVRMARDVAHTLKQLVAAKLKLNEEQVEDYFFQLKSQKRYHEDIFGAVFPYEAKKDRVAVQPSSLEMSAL

Sequence of Estrogen receptor beta (Q92731 whole entry): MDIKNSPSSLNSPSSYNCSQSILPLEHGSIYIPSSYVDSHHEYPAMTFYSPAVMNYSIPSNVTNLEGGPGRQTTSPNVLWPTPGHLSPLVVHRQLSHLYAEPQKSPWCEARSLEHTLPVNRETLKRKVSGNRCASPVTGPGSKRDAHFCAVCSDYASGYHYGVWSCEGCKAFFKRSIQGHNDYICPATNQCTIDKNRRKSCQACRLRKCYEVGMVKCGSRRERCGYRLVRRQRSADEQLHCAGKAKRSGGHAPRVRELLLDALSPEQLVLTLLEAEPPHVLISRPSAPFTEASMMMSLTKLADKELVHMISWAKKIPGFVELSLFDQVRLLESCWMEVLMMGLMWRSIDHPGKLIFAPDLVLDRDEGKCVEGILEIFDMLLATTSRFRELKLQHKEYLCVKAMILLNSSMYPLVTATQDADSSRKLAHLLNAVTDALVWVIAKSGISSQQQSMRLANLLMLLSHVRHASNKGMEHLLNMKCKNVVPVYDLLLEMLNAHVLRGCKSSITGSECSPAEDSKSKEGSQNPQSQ

SMILES | IC50 (Estrogen receptor beta) [µM] | IC50 [1] [µM]
Oc1ccc2nn(-c3ccccc3)cc2c1 | 10 | –
Cc1cc(-c2cccc(Cl)c2)ccc1O | 2.1 | –
COc1ccc(-c2ccc(O)cc2)cc1 | 2.4 | –
Nc1ccc(-c2ccc(O)cc2)cc1Cl | 2.9 | –
Cc1cc(O)ccc1-c1ccccc1 | 4 | –
Oc1ccc(-c2ccccc2)cc1Cl | 3.1 | –
Cc1cccc2c1C(N)=NC(C1CCC1)N2 (stereo not given) | – | 1.2

The remaining compounds from weak to strong by IC50 (Estrogen receptor beta), led by results:

IC50 (Estrogen receptor beta) [µM] | IC50 [1] [µM] | SMILES
1.8 | – | N#Cc1ccccc1-c1ccc(O)cc1
1.2 | – | Oc1ccc(-c2cccc(F)c2)cc1
1.1 | – | Oc1ccc(-n2nc3ccccc3c2Cl)cc1
